{"source": "patent US11840686B2", "about": "“Modulation of prekallikrein (PKK) expression” (Ionis Pharmaceuticals, Inc., priority 2013, dated 2023)", "key": {"[1]": {"test_system": "PKK protein", "assay": "Plasma PKK protein levels in human KLKB1 transgenic mice (Example 7)", "format": "in vivo", "conditions": "plasma, twice a week for 3 weeks", "experimental": "(§1) Transgenic mice containing a 37,390 base pair fragment of the human KLKB1 gene sequence (chromosome 4: position 187148672-187179625, accession no: NC_000004.11) were treated with ISIS antisense oligonucleotides selected from studies described above, which were evaluated for efficacy in this model.\n(§2) Groups of transgenic mice were injected subcutaneously twice a week for 3 weeks with 2.5 mg/kg/week, 5.0 mg/kg/week, 10 mg/kg/week or 20 mg/kg/week of ISIS 546232, ISIS 546251, ISIS 546254, ISIS 546343, ISIS 546828, ISIS 547455, ISIS 547457, ISIS 547927, and ISIS 548048. One group of transgenic mice was injected subcutaneously twice a week for 3 weeks with PBS. Mice were euthanized 48 hours after the last dose, and organs and plasma were harvested for further analysis.\nPlasma PKK protein levels were evaluated in all groups. Results are presented as percent inhibition of PKK protein, relative to PBS control."}, "[2]": {"test_system": "human PKK mRNA", "assay": "Dose-dependent antisense inhibition of human PKK in HepaRG cells, 0.11-3.00 uM (Example 6)", "format": "cell-based", "conditions": "electroporation, approx. 16 hours, relative to untreated control cells", "procedure,_shortened": "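Antisense oligonucleotides were tested over 0.11–3.00 μM, delivered by electroporation, with readout after roughly 16 h. Human PKK transcript was measured by real-time PCR (set RTS3454) and adjusted to RIBOGREEN total RNA, giving half-maximal inhibitory concentrations.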"}, "[3]": {"test_system": "human PKK mRNA", "assay": "Human PKK mRNA in liver of human KLKB1 transgenic mice (Example 7)", "format": "in vivo", "conditions": "twice a week for 3 weeks", "experimental": "as §1, §2\nTo evaluate the effect of ISIS oligonucleotides on target reduction, RNA was extracted from liver tissue for real-time PCR analysis of human PKK. Results are presented as percent inhibition of PKK mRNA, relative to PBS control."}, "[4]": {"test_system": "human PKK mRNA", "assay": "Antisense inhibition of human PKK mRNA in HepaRG cells, 1,000 nM, MOE/deoxy/cEt oligonucleotides (Example 3)", "format": "cell-based", "conditions": "HepaRG cells, electroporation with 1,000 nM antisense oligonucleotide, approximately 24 hours, primer probe set RTS3454, relative to untreated control cells", "procedure,_shortened": "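Readout is percent PKK mRNA reduction against untreated controls, by real-time PCR (RTS3454) adjusted for total RNA via RIBOGREEN. Oligonucleotides, phosphorothioate gapmers of 16 nucleosides with cEt, MOE and deoxy sugars, were delivered at 1,000 nM by electroporation to 20,000 HepaRG cells/well for roughly 24 h.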"}, "[5]": {"test_system": "PKK mRNA", "assay": "PKK mRNA in cynomolgus monkey liver (Example 8)", "format": "in vivo", "conditions": "40 mg/kg s.c., loading then weekly to week 13; day 87 or 88, 48 h after final dose", "experimental": "Cynomolgus monkeys were treated with ISIS antisense oligonucleotides selected from studies described above. Antisense oligonucleotide efficacy and tolerability were evaluated. The human antisense oligonucleotides tested are cross-reactive with the rhesus genomic sequence (GENBANK Accession No. NW_001118167.1 truncated from nucleotides 2358000 to 2391000 and designated herein as SEQ ID NO: 18).\nOn day 87 or 88, 48 hours after the final dose, RNA was extracted from liver tissue for real-time PCR analysis of PKK using primer probe set RTS3455 (forward sequence […], designated herein as SEQ ID NO: 23; reverse sequence […], designated herein as SEQ ID NO: 24; probe sequence […], designated herein as SEQ ID NO: 25). The results were normalized to the housekeeping gene, Cyclophilin. Results are presented as percent inhibition of PKK mRNA, relative to PBS control."}, "[6]": {"test_system": "human PKK mRNA", "assay": "Antisense inhibition of human PKK mRNA in HepaRG cells, 5,000 nM (Example 2)", "format": "cell-based", "conditions": "Table 7; HepaRG cells, electroporation with 5,000 nM antisense oligonucleotide, approx. 24 hours; PKK mRNA by RT-PCR (RTS3454), relative to untreated control cells", "procedure,_shortened": "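qRT-PCR (RTS3454) read-out, RIBOGREEN-normalized; % inhibition vs untreated cells. HepaRG, 20,000 cells/well, electroporation, 5,000 nM ASO, ~24 h.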"}, "[7]": {"test_system": "human PKK mRNA", "assay": "Dose-dependent antisense inhibition of human PKK in HepaRG cells, 0.19-5.00 uM (Example 5)", "format": "cell-based", "conditions": "HepaRG cells", "procedure,_shortened": "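PKK mRNA knockdown was measured by real-time PCR (primer probe set RTS3454) about 16 h after electroporating 20,000 HepaRG cells per well with oligonucleotide at four doses from 0.19 to 5.00 μM. Levels were adjusted to RIBOGREEN-measured total RNA, and IC50 values were calculated.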"}}, "note": "Strand notation (5' to 3'): a small letter for the sugar, then the base; units joined by * are phosphorothioate-linked, units joined directly phosphodiester-linked; [ ] holds rarer units or linkages, { } end groups; capitals alone tell only the bases. e = 2'-O-(2-methoxyethyl) (MOE); k = constrained ethyl (cEt); [5mC] = 5-methylcytosine; d = 2'-deoxy (DNA)"}
{"substance": "547927 (eA*eT*kG*dG*dT*d[5mC]*d[5mC]*dG*dA*d[5mC]*dA*d[5mC]*dA*k[5mC]*kA*eA) [compound 547927]", "values": [{"measurement": "% inhibition of PKK protein levels in the transgenic mice relative to the PBS control", "setting": "[1]; 2.5 mg/kg/week sc", "value": 25, "unit": "%"}, {"measurement": "% inhibition of PKK protein levels in the transgenic mice relative to the PBS control", "setting": "[1]; 5 mg/kg/week sc", "value": 21, "unit": "%"}, {"measurement": "% inhibition of PKK protein levels in the transgenic mice relative to the PBS control", "setting": "[1]; 20 mg/kg/week sc", "value": 80, "unit": "%"}, {"measurement": "percent inhibition of PKK mRNA, 0.11 μM", "setting": "[2]", "value": 56, "unit": "%"}, {"measurement": "percent inhibition of PKK mRNA, 0.33 μM", "setting": "[2]", "value": 64, "unit": "%"}, {"measurement": "percent inhibition of PKK mRNA, 1.00 μM", "setting": "[2]", "value": 92, "unit": "%"}, {"measurement": "percent inhibition of PKK mRNA, 3.00 μM", "setting": "[2]", "value": 88, "unit": "%"}, {"measurement": "% inhibition of PKK mRNA in the transgenic mice liver relative to the PBS control", "setting": "[3]; 2.5 mg/kg/week sc", "value": 35, "unit": "%"}, {"measurement": "% inhibition of PKK mRNA in the transgenic mice liver relative to the PBS control", "setting": "[3]; 5 mg/kg/week sc", "value": 52, "unit": "%"}, {"measurement": "% inhibition of PKK mRNA in the transgenic mice liver relative to the PBS control", "setting": "[3]; 10 mg/kg/week sc", "value": 93, "unit": "%"}, {"measurement": "% inhibition of PKK mRNA in the transgenic mice liver relative to the PBS control", "setting": "[3]; 20 mg/kg/week sc", "value": 71, "unit": "%"}, {"measurement": "% inhibition", "setting": "[4]; experiment of Table 23", "value": 79, "unit": "%"}, {"measurement": "% inhibition of PKK mRNA in the cynomolgus monkey liver relative to the PBS control", "setting": "[5]", "value": 54, "unit": "%"}]}
{"substance": "548048 (e[5mC]*eG*kA*dT*dA*dT*d[5mC]*dA*dT*dG*dA*dT*dT*k[5mC]*k[5mC]*e[5mC]) [compound 548048]", "values": [{"measurement": "% inhibition of PKK protein levels in the transgenic mice relative to the PBS control", "setting": "[1]; 2.5 mg/kg/week sc", "value": 23, "unit": "%"}, {"measurement": "% inhibition of PKK protein levels in the transgenic mice relative to the PBS control", "setting": "[1]; 5 mg/kg/week sc", "value": 70, "unit": "%"}, {"measurement": "% inhibition of PKK protein levels in the transgenic mice relative to the PBS control", "setting": "[1]; 10 mg/kg/week sc", "value": 89, "unit": "%"}, {"measurement": "% inhibition of PKK protein levels in the transgenic mice relative to the PBS control", "setting": "[1]; 20 mg/kg/week sc", "value": 98, "unit": "%"}, {"measurement": "percent inhibition of PKK mRNA, 0.11 μM", "setting": "[2]", "value": 49, "unit": "%"}, {"measurement": "percent inhibition of PKK mRNA, 0.33 μM", "setting": "[2]", "value": 66, "unit": "%"}, {"measurement": "percent inhibition of PKK mRNA, 1.00 μM", "setting": "[2]", "value": 86, "unit": "%"}, {"measurement": "percent inhibition of PKK mRNA, 3.00 μM", "setting": "[2]", "value": 92, "unit": "%"}, {"measurement": "% inhibition of PKK mRNA in the transgenic mice liver relative to the PBS control", "setting": "[3]; 2.5 mg/kg/week sc", "value": 7, "unit": "%"}, {"measurement": "% inhibition of PKK mRNA in the transgenic mice liver relative to the PBS control", "setting": "[3]; 5 mg/kg/week sc", "value": 77, "unit": "%"}, {"measurement": "% inhibition of PKK mRNA in the transgenic mice liver relative to the PBS control", "setting": "[3]; 10 mg/kg/week sc", "value": 72, "unit": "%"}, {"measurement": "% inhibition of PKK mRNA in the transgenic mice liver relative to the PBS control", "setting": "[3]; 20 mg/kg/week sc", "value": 80, "unit": "%"}, {"measurement": "% inhibition", "setting": "[4]; experiment of Table 24", "value": 84, "unit": "%"}, {"measurement": "% inhibition of PKK mRNA in the cynomolgus monkey liver relative to the PBS control", "setting": "[5]", "value": 95, "unit": "%"}]}
{"substance": "546232 (eA*eG*eG*eA*eA*d[5mC]*dT*dT*dG*dG*dT*dG*dT*dG*d[5mC]*e[5mC]*eA*e[5mC]*eT*eT) [compound 546232]", "values": [{"measurement": "% inhibition of PKK protein levels in the transgenic mice relative to the PBS control", "setting": "[1]; 2.5 mg/kg/week sc", "value": 0, "unit": "%"}, {"measurement": "% inhibition of PKK protein levels in the transgenic mice relative to the PBS control", "setting": "[1]; 5 mg/kg/week sc", "value": 6, "unit": "%"}, {"measurement": "% inhibition of PKK protein levels in the transgenic mice relative to the PBS control", "setting": "[1]; 10 mg/kg/week sc", "value": 33, "unit": "%"}, {"measurement": "% inhibition of PKK protein levels in the transgenic mice relative to the PBS control", "setting": "[1]; 20 mg/kg/week sc", "value": 79, "unit": "%"}, {"measurement": "% inhibition of PKK mRNA in the transgenic mice liver relative to the PBS control", "setting": "[3]; 2.5 mg/kg/week sc", "value": 57, "unit": "%"}, {"measurement": "% inhibition of PKK mRNA in the transgenic mice liver relative to the PBS control", "setting": "[3]; 5 mg/kg/week sc", "value": 53, "unit": "%"}, {"measurement": "% inhibition of PKK mRNA in the transgenic mice liver relative to the PBS control", "setting": "[3]; 10 mg/kg/week sc", "value": 30, "unit": "%"}, {"measurement": "% inhibition of PKK mRNA in the transgenic mice liver relative to the PBS control", "setting": "[3]; 20 mg/kg/week sc", "value": 84, "unit": "%"}, {"measurement": "% inhibition of PKK mRNA in the cynomolgus monkey liver relative to the PBS control", "setting": "[5]", "value": 88, "unit": "%"}, {"measurement": "% inhibition", "setting": "[6]", "value": 86, "unit": "%"}, {"measurement": "percent inhibition of PKK at 0.19 μM", "setting": "[7]; 0.19 μM, electroporation, approximately 16 hours, Table 39", "value": 49, "unit": "%"}, {"measurement": "percent inhibition of PKK at 0.56 μM", "setting": "[7]; 0.56 μM, electroporation, approximately 16 hours, Table 39", "value": 50, "unit": "%"}, {"measurement": "percent inhibition of PKK at 1.67 μM", "setting": "[7]; 1.67 μM, electroporation, approximately 16 hours, Table 39", "value": 94, "unit": "%"}, {"measurement": "percent inhibition of PKK at 5.00 μM", "setting": "[7]; 5.00 μM, electroporation, approximately 16 hours, Table 39", "value": 97, "unit": "%"}, {"measurement": "IC50", "setting": "[7]; 4 point dose response, Table 39", "value": 200, "unit": "nM"}, {"measurement": "percent inhibition of PKK mRNA, 0.19 μM", "setting": "[7]; 0.19 μM antisense oligonucleotide", "value": 0, "unit": "%"}, {"measurement": "percent inhibition of PKK mRNA, 0.56 μM", "setting": "[7]; 0.56 μM antisense oligonucleotide", "value": 74, "unit": "%"}, {"measurement": "percent inhibition of PKK mRNA, 1.67 μM", "setting": "[7]; 1.67 μM antisense oligonucleotide", "value": 95, "unit": "%"}, {"measurement": "percent inhibition of PKK mRNA, 5.00 μM", "setting": "[7]; 5.00 μM antisense oligonucleotide", "value": 96, "unit": "%"}, {"measurement": "IC50", "setting": "[7]; 0.19-5.00 μM", "value": 200, "unit": "nM"}]}
